pIC50: −log10 of the molar value.
Assays:
[1] = target: T1, Casein kinase I isoform alpha (Homo sapiens, UniProt P48729); test: CSNK1A1-Inhibitory Activity Assay (Low ATP)
Protocol: For the assay 50 nl of a 100-fold concentrated solution of the test compound in DMSO was pipetted into a white 1536-well microtiter plate (Greiner Bio-One, Frickenhausen, Germany), 2 μL of a solution of CSNK1A1 in aqueous assay buffer [50 mM HEPES pH 7.5, 10% (v/v) glycerol, 10 mM MgCl2, 50 mM NaCl, 1 mM dithiothreitol, 0.01% (w/v) bovine serum albumin, 0.01% (v/v) Triton X-100] were added and the mixture was incubated for 15 min at 22° C. to allow pre-binding of the test compounds to the enzyme before the start of the kinase reaction. Then the kinase reaction was started by the addition of 3 μL of a solution of ATP (1.67 μM=>final conc. in the 5 μL assay volume is 1 μM) and peptide substrate (50 μM=>final conc. in the 5 μL assay volume is 30 μM) in assay buffer and the resulting mixture was incubated for a reaction time of 30 min at 22° C. The concentration of CSNK1A1 was adjusted depending of the activity of the enzyme lot and was chosen appropriate to have the assay in the linear range, a typical concentrations are about 0.0375 ng/μL. […] Subsequently 2.5 μL of the “kinase detection reagent” (1.2 fold more concentrated than recommended by the producer) were added, the resulting mixture was incubated at 22° C. for 1 h and then the luminescence measured with a suitable measurement instrument (e.g. Viewlux™ from Perkin-Elmer). […]

[2] = target: Casein kinase I isoform delta (Homo sapiens, UniProt P48730); test: CSNK1D-Inhibitory Activity Assay
Sequence of Casein kinase I isoform delta (P48730 whole entry, canonical isoform): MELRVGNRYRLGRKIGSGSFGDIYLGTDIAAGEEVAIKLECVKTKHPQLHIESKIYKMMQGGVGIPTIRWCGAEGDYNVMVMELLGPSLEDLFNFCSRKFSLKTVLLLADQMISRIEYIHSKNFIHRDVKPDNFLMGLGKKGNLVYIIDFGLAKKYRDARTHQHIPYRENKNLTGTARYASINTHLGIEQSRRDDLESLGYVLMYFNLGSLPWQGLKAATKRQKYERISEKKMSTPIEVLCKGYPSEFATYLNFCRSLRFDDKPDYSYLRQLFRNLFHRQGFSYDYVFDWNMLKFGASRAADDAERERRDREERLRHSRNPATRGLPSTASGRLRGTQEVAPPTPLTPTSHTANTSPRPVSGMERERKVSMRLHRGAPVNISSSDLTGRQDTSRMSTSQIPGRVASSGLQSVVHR
Protocol: For the assay 50 nl of a 100-fold concentrated solution of the test compound in DMSO was pipetted into a white 1536-well microtiter plate (Greiner Bio-One, Frickenhausen, Germany), 2 μL of a solution of CSNK1D in aqueous assay buffer [50 mM HEPES pH 7.5, 10% (v/v) glycerol, 10 mM MgCl2, 50 mM NaCl, 1 mM dithiothreitol, 0.01% (w/v) bovine serum albumin, 0.01% (v/v) Triton X-100] were added and the mixture was incubated for 15 min at 22° C. to allow pre-binding of the test compounds to the enzyme before the start of the kinase reaction. Then the kinase reaction was started by the addition of 3 μL of a solution of ATP (1.67 μM=>final conc. in the 5 μL assay volume is 1 μM) and peptide substrate (50 μM=>final conc. in the 5 μL assay volume is 30 μM) in assay buffer and the resulting mixture was incubated for a reaction time of 30 min at 22° C. The concentration of CSNK1D was adjusted depending of the activity of the enzyme lot and was chosen appropriate to have the assay in the linear range, a typical concentration is about 0.5 ng/μL. […] Subsequently 2.5 μL of the “kinase detection reagent” (1.2 fold more concentrated than recommended by the producer) were added, the resulting mixture was incubated at 22° C. for 1 h and then the luminescence measured with a suitable measurement instrument (e.g. Viewlux™ from Perkin-Elmer). […]

[3] = target: Casein kinase I isoform gamma-3 (Homo sapiens, UniProt Q9Y6M4); test: CSNK1G3-Inhibitory Activity Assay
Sequence of Casein kinase I isoform gamma-3 (Q9Y6M4 whole entry, canonical isoform): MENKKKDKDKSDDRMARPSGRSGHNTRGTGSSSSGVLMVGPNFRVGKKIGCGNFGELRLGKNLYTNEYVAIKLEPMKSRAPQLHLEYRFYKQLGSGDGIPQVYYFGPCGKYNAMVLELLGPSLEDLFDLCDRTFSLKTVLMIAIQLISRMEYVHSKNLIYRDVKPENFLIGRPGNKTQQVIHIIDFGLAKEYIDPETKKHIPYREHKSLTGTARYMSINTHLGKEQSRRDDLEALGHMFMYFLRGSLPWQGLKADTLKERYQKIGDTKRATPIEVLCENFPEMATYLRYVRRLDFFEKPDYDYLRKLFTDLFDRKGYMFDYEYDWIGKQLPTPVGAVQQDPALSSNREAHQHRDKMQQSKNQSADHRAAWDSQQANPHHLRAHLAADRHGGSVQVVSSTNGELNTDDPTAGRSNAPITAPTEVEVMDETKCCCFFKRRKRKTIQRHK
Protocol: For the assay 50 nl of a 100 fold concentrated solution of the test compound in DMSO was pipetted into a white 1536-well microtiter plate (Greiner Bio-One, Frickenhausen, Germany), 2 μL of a solution of CSNK1G3 in aqueous assay buffer [50 mM HEPES pH 7.5, 10% (v/v) glycerol, 10 mM MgCl2, 50 mM NaCl, 1 mM dithiothreitol, 0.01% (w/v) bovine serum albumin, 0.01% (v/v) Triton X-100] were added and the mixture was incubated for 15 min at 22° C. to allow pre-binding of the test compounds to the enzyme before the start of the kinase reaction. Then the kinase reaction was started by the addition of 3 μL of a solution of ATP ([…]) and peptide substrate (50 μM=>final conc. in the 5 μL assay volume is 30 μM) in assay buffer and the resulting mixture was incubated for a reaction time of 30 min at 22° C. The concentration of CSNK1G3 was adjusted depending of the activity of the enzyme lot and was chosen appropriate to have the assay in the linear range, a typical concentration is about 0.06 ng/μL. […] Subsequently 2.5 μL of the “kinase detection reagent” (1.2 fold more concentrated than recommended by the producer) were added, the resulting mixture was incubated at 22° C. for 1 h and then the luminescence measured with a suitable measurement instrument (e.g. Viewlux™ from Perkin-Elmer). […]

[4] = target: T1, Casein kinase I isoform alpha; test: CSNK1A1-Inhibitory Activity Assay (High ATP)
Protocol: For the assay 50 nl of a 100 fold concentrated solution of the test compound in DMSO was pipetted into a white low volume 384-well microtiter plate (Greiner Bio-One, Frickenhausen, Germany), 2 μL of a solution of CSNK1A1 in aqueous assay buffer [50 mM HEPES pH 7.5, 10% (v/v) glycerol, 10 mM MgCl2, 50 mM NaCl, 1 mM dithiothreitol, 0.01% (w/v) bovine serum albumin, 0.01% (v/v) Triton X-100] were added and the mixture was incubated for 15 min at 22° C. to allow pre-binding of the test compounds to the enzyme before the start of the kinase reaction. Then the kinase reaction was started by the addition of 3 μL of a solution of ATP (1.67 mM=>final conc. in the 5 μL assay volume is 1 mM) and peptide substrate (167 μM=>final conc. in the 5 μL assay volume is 100 μM) in assay buffer and the resulting mixture was incubated for a reaction time of 30 min at 22° C. The concentration of CSNK1A1 was adjusted depending of the activity of the enzyme lot and was chosen appropriate to have the assay in the linear range, a typical concentration is about 0.4 ng/μL. […] Subsequently 2.5 μL of the “kinase detection reagent” (1.2 fold more concentrated than recommended by the producer) were added, the resulting mixture was incubated at 22° C. for 1 h and then the luminescence measured with a suitable measurement instrument (e.g. Viewlux™ from Perkin-Elmer). […]

T1 sequence (P48729 whole entry, canonical isoform): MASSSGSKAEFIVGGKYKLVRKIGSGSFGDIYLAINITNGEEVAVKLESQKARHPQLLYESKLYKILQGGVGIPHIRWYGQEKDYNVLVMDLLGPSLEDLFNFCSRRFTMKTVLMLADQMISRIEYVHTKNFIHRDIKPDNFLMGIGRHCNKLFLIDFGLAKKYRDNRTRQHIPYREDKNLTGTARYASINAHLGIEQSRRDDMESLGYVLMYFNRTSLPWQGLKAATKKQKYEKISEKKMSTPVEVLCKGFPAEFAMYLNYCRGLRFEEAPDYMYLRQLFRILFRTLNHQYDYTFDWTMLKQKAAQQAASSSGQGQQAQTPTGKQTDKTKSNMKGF

`O=C(Cc1cnco1)Nc1cc(-c2[nH]c3cccnc3c2-c2ccccn2)ccn1` [US20250188075, Example 4] showed a pIC50 [1] of 8.74, a pIC50 [2] of 8.28 and a pIC50 [3] of 7.30. The pIC50 [4] was 7.33.

Reference: BindingDB's records for patent US20250188075 (The Broad Institute, 2025)
